In general, IC50 refers to the point on the concentration scale where inhibition reaches its midpoint. A higher IC50 goes with lower potency.

Here are results for 6 molecules from article PMC11241340, “The Discovery of Novel α2a Adrenergic Receptor Agonists Only Coupling to Gαi/O Proteins by Virtual Screening” (International Journal of Molecular Sciences, 2024).

Test [1] concerns the target T1, α2A-AR mutant Y394A (α2AY394A-AR) (Homo sapiens, UniProt P08913, Y409A).
T1 construct: Flag; expressed in transfected cells; host or cells: HEK293
T1 sequence (P08913 1-465 Y409A): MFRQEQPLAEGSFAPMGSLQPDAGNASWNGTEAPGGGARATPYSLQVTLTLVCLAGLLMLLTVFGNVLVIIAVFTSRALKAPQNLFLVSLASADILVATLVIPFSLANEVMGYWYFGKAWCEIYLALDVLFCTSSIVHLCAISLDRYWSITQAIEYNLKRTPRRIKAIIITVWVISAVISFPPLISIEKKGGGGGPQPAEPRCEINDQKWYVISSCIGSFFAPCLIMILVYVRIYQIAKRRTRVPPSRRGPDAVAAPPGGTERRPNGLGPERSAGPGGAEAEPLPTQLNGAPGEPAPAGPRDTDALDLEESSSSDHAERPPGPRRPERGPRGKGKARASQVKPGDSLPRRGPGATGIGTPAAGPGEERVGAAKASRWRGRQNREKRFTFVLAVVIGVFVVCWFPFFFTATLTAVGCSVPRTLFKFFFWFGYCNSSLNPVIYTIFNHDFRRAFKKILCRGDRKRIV
Nature of the test: GloSensor cAMP assay in HEK293 cells transfected with α2AY394A-AR. Format: cell-based. The following applies: forskolin 10 μM. As for the experimental part:
(§1) According to the GloSensor cAMP biosensor (Promega, Shanghai, China) manufacturer protocols, HEK293 cells were co-transfected with the pGloSensor-22F cAMP plasmid (Promega, E1171) and pCMV6 Entry-Flag-α2A-AR. After 24 h, the cells were seeded in white 96-well plates. The next day, the cell media were replaced by 90 μL of fresh DMEM with 2% v/v GloSensor cAMP reagent (Promega, E1290) and incubated for 60 min at 37 °C. Before drug stimulation, an initial measurement of the baseline signal was detected. […] PTX 500 ng/mL pretreatment for 24 h was used to assay the chemical effects on Gi coupling following α2A-AR activation. Two mutations, V114A and Y394A were introduced into the α2A-AR genes, respectively, using standard QuickChange PCR. […] In each experiment, the cAMP assay used pcDNA3.1 myc/hisB transfected cells as a negative control and cells stimulated with 10 μM of forskolin as a positive control. The signal was read using a Victor 2D Instrument (PerkinElmer) at 675 nm. The production of cAMP% was calculated (the signal value after chemicals addition–baseline signal value)/the baseline signal value *100 as described in our previous study.
In general terms: Cyclic AMP is a second messenger, typically raised through Gs and lowered through Gi signalling.

Test [2] relates to C57BL/6 mice. Description: Spontaneous locomotor activity of mice. Format: in vivo, mouse. Particulars: for inhibition of mice locomotor activity compared to solvent: 10 nmol/mice, i.c.v. The text has this:
Animals had free access to water and food. […] Animals were assigned to groups randomly before testing.

For test [3], the target named is T2, α2A-AR (Homo sapiens, UniProt P08913).
T2 sequence (P08913 1-465): T1 sequence (P08913 1-465 Y409A) with A409Y
Description: Competitive inhibition of [3H] Rauwolscine binding, CHO-K1 membranes.

The target in test [4] is T3, α2B-AR (Homo sapiens, UniProt P18089).
T3 sequence (P18089 1-450): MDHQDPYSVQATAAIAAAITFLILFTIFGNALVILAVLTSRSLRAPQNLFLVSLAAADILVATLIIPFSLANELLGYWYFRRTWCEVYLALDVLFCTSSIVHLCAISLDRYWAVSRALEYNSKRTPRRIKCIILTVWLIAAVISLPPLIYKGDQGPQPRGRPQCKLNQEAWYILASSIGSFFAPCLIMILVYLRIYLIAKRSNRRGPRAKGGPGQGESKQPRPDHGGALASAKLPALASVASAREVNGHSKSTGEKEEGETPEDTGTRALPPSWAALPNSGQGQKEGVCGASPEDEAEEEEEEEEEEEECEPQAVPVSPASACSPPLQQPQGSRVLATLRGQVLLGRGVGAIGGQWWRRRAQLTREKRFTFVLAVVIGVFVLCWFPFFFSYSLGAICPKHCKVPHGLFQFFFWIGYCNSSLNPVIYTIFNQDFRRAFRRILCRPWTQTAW
The description is as above.

Test [5] addresses T3, α2B-AR. Description: GloSensor cAMP assay in HEK293 cells transfected with α2B-AR. Format: cell-based. The arrangement: Flag; expressed in transfected cells; host or cells: HEK293. The following applies: for effect on cAMP accumulation (agonist activity) in α2B-AR cells: HEK293 α2B-AR, DMED 10^−10–10^−7M, P300–2342 10^−10–10^−5M; for effect of pretreatment on cAMP accumulation induced by DMED (antagonist activity): α2B-AR-HEK293 cells, 10 μM.

The target in test [6] is T4, α2A-AR mutant V114A (α2AV114A-AR) (Homo sapiens, UniProt P08913, V129A).
T4 construct: Flag; expressed in transfected cells; host or cells: HEK293
T4 sequence (P08913 1-465 V129A): T1 sequence (P08913 1-465 Y409A) with V129A, A409Y
Description: GloSensor cAMP assay in HEK293 cells transfected with α2AV114A-AR. Format: cell-based. Particulars: forskolin 10 μM. How it is done:
as §1

The target in test [7] is T2, α2A-AR. Nature of the test: GloSensor cAMP assay in HEK293 cells transfected with α2A-AR. Format: cell-based. More on the design: Flag; expressed in transfected cells; host or cells: HEK293. Particulars: for decrease in cAMP accumulation after pertussis toxin pretreatment: PTX 500 ng/mL, 24 h; for increase of cAMP accumulation (Gαs coupling) / decrease of cAMP accumulation stimulated by forskolin (Gαi/o coupling): α2A-AR HEK293, P300–2342 10^−10–10^−5M; for increase of cAMP accumulation (Gαs coupling): DMED 10^−8–10^−5M; for decrease of cAMP accumulation stimulated by forskolin (Gαi/o coupling): FSK 10^−5M, DMED 10^−13–10^−9M. As for the experimental part: as §1

The subject of test [8] is C57/B6 mice. Particulars: 432 nmol/kg, i.p.
Description: C57BL/6 mice (20–22 g) were purchased from the SPF biotechnology co., LTD (Beijing, China). All the animals were housed in an alternating 12 h light/12 h dark cycle room, which was maintained in a climate-controlled environment (25 ± 1 °C). Animals had free access to water and food. All the experimental procedures were reviewed and approved by the ethics committee and institutional animal care and use committee of the Beijing Institute of Pharmacology and Toxicology, Beijing, China (IACUC of AMMS–06–2017–001). Animals were assigned to groups randomly before testing. Testing occurred within the same approximate time of day between experiments. The experimenter was blinded to treatment throughout the course of behavioral testing.
The LORR in C57/B6 mice were used to study the effects of screening compounds.

Residue numbers refer to the chain shown, from its start.

For the molecule `CCN(CC)CCNC(=O)c1ccc2c(c1)n(Cc1cccc(F)c1)c(=O)c1ccnn12` [P300–2342], in test [1], the “decrease of cAMP production in α2AY394A-AR cells” value is given as “did not decrease”. In test [2] (compound 10 nmol/mice i.c.v., atipamezole 0.2 mg/kg i.p.), the “antagonism of the locomotor inhibition by α2-AR antagonist atipamezole” value is “could be antagonized”. In test [2] (p < 0.05, dose not given), the “locomotor activity of mice (abstract statement)” value was “significantly decreased”. Further, the “maximum binding inhibition of [3H] Rauwolscine, α2A-AR” value (“maximum binding inhibition … α2A-AR” for short) in test [3] is 83%. The “maximum binding inhibition of [3H] Rauwolscine, α2B-AR” value (from here on “maximum binding inhibition … α2B-AR”) in test [4] amounted to 71%. Also, in test [5], the “effect on cAMP accumulation (agonist activity) in α2B-AR cells” value (from here on “effect … in α2B-AR cells”) is “no effect” and the “effect of pretreatment on cAMP accumulation induced by DMED (antagonist activity)” value (shortened to “effect of pretreatment”) is recorded as “slightly decreased”. In addition, the “decrease of cAMP production in α2AV114A-AR cells” value in test [6] is given as “did not decrease”. Also, in test [7] (BRL44408 1 μM), the “effect on cAMP accumulation in presence of α2A-AR selective antagonist BRL44408” value is given as “antagonized”. In addition, in test [7], the “decrease in cAMP accumulation after pertussis toxin pretreatment” value is given as “abolished”, the “increase of cAMP accumulation (Gαs coupling)” value (from here on “increase of cAMP accumulation”) is “without increasing” and the “decrease of cAMP accumulation stimulated by forskolin (Gαi/o coupling)” value (“decrease of cAMP accumulation stimulated” below) was “concentration-dependently decreased”.

Turning to `O=C(NCCN1CCCCC1)c1ccc2c(c1)n(Cc1cccc(F)c1)c(=O)c1ccnn12` [P300–2344], the “inhibition of mice locomotor activity compared to solvent” value (from here on “inhibition … compared to solvent”) in test [2] was 30%–60%. In test [3], the IC50 came out at 11.3 µM and the “maximum binding inhibition … α2A-AR” value is given as 91%. In addition, in test [4], the IC50 was 15.9 µM and the “maximum binding inhibition … α2B-AR” value is 86%. For the same molecule, in test [5], the “effect … in α2B-AR cells” value was “no activation” and the “effect of pretreatment” value is listed as “no effects”. Further, in test [7], the “increase of cAMP accumulation” value is given as “without increasing” and the “decrease of cAMP accumulation stimulated” value is on record as “decreased”.

Consider `CCN(CC)CCNC(=O)c1ccc2c(c1)n(Cc1ccccc1)c(=O)c1ccnn12` [P300–1500], for which the “inhibition … compared to solvent” value in test [2] is 30%–60%. Further, in test [3], the half-maximal inhibitory concentration (IC50) amounted to 9.66 µM and the “maximum binding inhibition … α2A-AR” value was found to be 90%. In test [4], the IC50 came to 19 µM and the “maximum binding inhibition … α2B-AR” value stood at 85%. In test [5], the “effect … in α2B-AR cells” value was “no activation” and the “effect of pretreatment” value was “no effects”. For the same molecule, in test [7], the “increase of cAMP accumulation” value is “without increasing” and the “decrease of cAMP accumulation stimulated” value is “decreased”.

For the molecule `COc1ccccc1N1CCN(CCN2C(=O)c3ccccc3C(C)(C)C2=O)CC1` [ARC239, reference compound], in test [5], the “effect of pretreatment” value is given as “decreased”.

On to `Cc1cccc([C@H](C)c2cnc[nH]2)c1C` [DMED, Dexmedetomidine, reference compound], for which, in test [1], the “cAMP production in α2AY394A-AR compared to α2A-AR wild type” value is reported as “increased” and the “decrease of cAMP production in α2AY394A-AR cells” value is recorded as “did not decrease”. Further, in test [4], the half-inhibitory concentration (IC50) was 0.0146 µM. The “effect … in α2B-AR cells” value in test [5] is “concentration-dependently increased”. For the same molecule, the “LORR induced in mice” value in test [8] worked out at 50%. For the same molecule, in test [6], the “cAMP production in α2AV114A-AR compared to α2A-AR wild type” value is on record as “increased” and the “decrease of cAMP production in α2AV114A-AR cells” value is on record as “did not decrease”. In test [7], the “decrease in cAMP accumulation after pertussis toxin pretreatment” value was “abolished”, the “increase of cAMP accumulation” value was “concentration-dependently increased” and the “decrease of cAMP accumulation stimulated” value is reported as “concentration-dependently decreased”.

On to `CN(C)CCNC(=O)c1ccc2c(c1)n(Cc1cccc(F)c1)c(=O)c1ccnn12` [T226–1970], for which the “inhibition … compared to solvent” value in test [2] is 30%–60%. Moreover, in test [3], the IC50 came to 19.5 µM and the “maximum binding inhibition … α2A-AR” value amounted to 85%. For the same molecule, in test [4], the 50% inhibitory concentration (IC50) was determined as 8.56 µM and the “maximum binding inhibition … α2B-AR” value is 94%. Further, in test [5], the “effect … in α2B-AR cells” value was “no activation” and the “effect of pretreatment” value is “slightly decreased”. In addition, in test [7], the “increase of cAMP accumulation” value was “without increasing” and the “decrease of cAMP accumulation stimulated” value is “decreased”.
